Results from patent US5362634A, “Process for producing A83543 compounds” (DowElanco, priority 1991, dated 1994).
Like-named read-outs stand apart in the source and are kept apart here.

Experiments:
[1] = system: neonate CBW (cotton bollworm) larvae; experiment: Surface-treated diet test against neonate CBW larvae; assay type: in vivo, Heliothis zea
Method: (§1) Each test compound was formulated by dissolving the compound in an acetone/alcohol (1:1) mixture containing 23 g of "Toximul R" (sulfonate/nonionic emulsifier blend) and 13 g of "Toximul S" (sulfonate/nonionic emulsifier blend) per liter. These mixtures were then diluted with water to give the indicated concentrations.
(§2) Additional insects were evaluated using similar formulations and evaluation procedures, with the exceptions noted.
(§3) After standard exposure periods, percent mortality was evaluated. The following abbreviations are used:
(§4) ^b Mean of two replicates tested
^d Diet is surface treated with A83543A, allowed to dry and infested

[2] = system: CBW (cotton bollworm) ova; experiment: Topical treatment of CBW eggs (ova); assay type: in vivo, Heliothis zea; details: 144 h, 6 days
Method: as §1, §2, §3, §4
^e Eggs topically treated with A83543A and held until control eggs

[3] = system: SM (twospotted spider mite); experiment: Greenhouse test against SM; assay type: in vivo; details: Tetranychus urticae
Method: as §1
(§5) Two-spotted spider mites (Tetranychus urticae Koch) and cotton or melon aphids (Aphis gossypii Glover) were introduced on squash cotyledons and allowed to establish on both leaf surfaces. Other plants in the same treatment pot were left uninfested. The leaves were then sprayed with 5 mL of test solution using a DeVilbiss atomizing sprayer at 10 psi. Both surfaces of the leaves were covered until runoff and then allowed to dry for one hour. Two uninfested leaves were then excised and placed into a Petri dish containing Southern armyworm (Spodoptera eridania Cramer).
(§6) After standard exposure periods, percent mortality was evaluated.

CA (cotton aphid) = experiment: Greenhouse test against CA; assay type: in vivo; details: Aphis gossypii, squash
Method: as §1, §5, §6

black blow fly larvae = experiment: In vitro efficacy against black blow fly larvae; details: Phormia regina
From the text: Tables XIX-XXI summarize in vitro studies with A83543A and A83543D.

adult stable fly (ASF) [4] = experiment: In vitro efficacy, exposure of ASF to chemically added serum samples; details: Stomoxys calcitrans, read-out: Percent insect mortality
From the text: ^1 Percent insect mortality following 24 to 48 hrs. in vitro exposure
to chemically added serum samples

blow fly larvae (LBF) = experiment: Guinea pig systemic test, blow fly larvae; assay type: in vivo
Method: Adult guinea pigs are used in this test system. The compounds to be tested are dissolved in aqueous polyvinyl pyrrolidone or in polyethylene glycol 200, and an appropriate amount of the solution is administered either orally or by intraperitoneal injection.
(§7) Blood is drawn from the guinea pigs at 30 minutes except as noted, and the samples of blood are centrifuged. Dental wicks are saturated with the blood serum, and then exposed in Petri dishes to adult stable flies; blow fly larvae are exposed in test tubes. After 24 and 48 hours, the insects are examined, and the number of dead are counted. The results of the tests are recorded as the percent of the insects which are killed.

adult stable fly (ASF) [5] = experiment: Sheep systemic test, adult stable fly; assay type: in vivo; details: Stomoxys calcitrans, 24 h
Method: as §7
(§8) Tests are carried out in sheep using the test method described supra in the Guinea Pig Test description. Test compound is administered by intraperitoneal or intravenous injection or intraruminally; blood samples are drawn at 24 hours in these tests.

sheep = experiment: Toxicity to the host animal, sheep systemic test; assay type: in vivo; design: key: N: none
Method: as §8

Nematospiroides dubius = experiment: Anthelmintic activity in mice experimentally infected with Nematospiroides dubius; assay type: in vivo; details: single oral gavage at 500 mg/kg
SAW (Southern armyworm) = experiment: Greenhouse test against SAW; assay type: in vivo; details: Spodoptera eridania, bushbean

`CC[C@H]1CCC[C@H](O[C@H]2CC[C@H](N(C)C)[C@@H](C)O2)[C@@H](C)C(=O)C2=C[C@@H]3[C@@H](C=C[C@@H]4C[C@@H](O[C@@H]5O[C@@H](C)[C@H](OC)[C@@H](OC)[C@H]5OC)C[C@@H]34)[C@@H]2CC(=O)O1` [A83543A] showed an inhibition at 0.5 ppm ([1]; 72 h, 3 days, 0.50 ppm) of 15%, an inhibition at 1 ppm ([1]; 72 h, 3 days) of 45% and an inhibition at 5 ppm ([1]; 72 h, 3 days) of 100%. For the same molecule, the inhibition at 10 ppm ([1]; 72 h, 3 days) was 100%, the inhibition at 50 ppm ([1]; 72 h, 3 days) was 100% and the inhibition at 1 ppm ([1]; 96 h, 4 days) was 30%. It also gave an inhibition at 5 ppm ([1]; 96 h, 4 days) of 100%, an inhibition at 10 ppm ([1]; 96 h, 4 days) of 100% and an inhibition at 50 ppm ([1]; 96 h, 4 days) of 100%. The inhibition at 100 ppm ([1]; 96 h, 4 days, 100.00 ppm) was 100%, the inhibition at 10 ppm ([2]; 10.00 ppm) was 0% and the inhibition at 50 ppm ([2]; 50.00 ppm) was 0%. The inhibition at 100 ppm ([2]; 100.00 ppm) was 30%, the inhibition at 6.25 ppm ([3]; bushbean, 6.25 ppm) was 0% and the inhibition at 12.5 ppm ([3]; bushbean, 12.5 ppm) was 10%. For the same molecule, the inhibition at 25 ppm ([3]; bushbean, 25 ppm) was 30%, the inhibition at 50 ppm ([3]; bushbean, 50 ppm) was 80% and the inhibition at 100 ppm ([3]; bushbean, 100 ppm) was 100%. It also gave an inhibition at 31.25 ppm ([3]; squash, 31.25 ppm) of 0%, an inhibition at 62.5 ppm ([3]; squash, 62.5 ppm) of 20% and an inhibition at 125 ppm ([3]; squash, 125 ppm) of 40%. It also gave an inhibition at 250 ppm ([3]; squash, 250 ppm) of 70%, an inhibition at 25 ppm (CA (cotton aphid); 25 ppm, second series) of 0% and an inhibition at 50 ppm (CA (cotton aphid); first series) of 0%. For the same molecule, the inhibition at 50 ppm (CA (cotton aphid); second series) was 40%, the inhibition at 100 ppm (CA (cotton aphid); first series) was 0% and the inhibition at 100 ppm (CA (cotton aphid); second series) was 80%. For the same molecule, the mortality at 0.25 ppm (black blow fly larvae; 0.25 ppm) was 25%, the mortality at 0.5 ppm (black blow fly larvae; 0.5 ppm) was 60% and the mortality at 1 ppm (black blow fly larvae; 1 ppm) was 95%. The mortality at 2 ppm (black blow fly larvae; 2 ppm) was 100%, the mortality at 5 ppm (black blow fly larvae; 5 ppm) was 100% and the mortality at 10 ppm (black blow fly larvae; 10 ppm) was 100%. The mortality at 25 ppm (black blow fly larvae; 25 ppm) was 100%, the mortality at 50 ppm (black blow fly larvae; 50 ppm) was 100% and the mortality at 100 ppm (black blow fly larvae; 100 ppm) was 100%. It also gave a mortality at 0.312 ppm (adult stable fly (ASF) [4]; 24 hr) of 0%, a mortality at 0.312 ppm (adult stable fly (ASF) [4]; 48 hr) of 50% and a mortality at 0.625 ppm (adult stable fly (ASF) [4]; 24 hr) of 0%. The mortality at 0.625 ppm (adult stable fly (ASF) [4]; 48 hr) was 70%, the mortality at 1.25 ppm (adult stable fly (ASF) [4]; 24 hr) was 20% and the mortality at 1.25 ppm (adult stable fly (ASF) [4]; 48 hr) was 100%. It also gave a mortality at 2.5 ppm (adult stable fly (ASF) [4]; 24 hr) of 30%, a mortality at 2.5 ppm (adult stable fly (ASF) [4]; 48 hr) of 100% and a mortality at 5 ppm (adult stable fly (ASF) [4]; 24 hr) of 50%. For the same molecule, the mortality at 5 ppm (adult stable fly (ASF) [4]; 48 hr) was 100%, the mortality at 10 ppm (adult stable fly (ASF) [4]; 24 hr) was 80% and the mortality at 10 ppm (adult stable fly (ASF) [4]; 48 hr) was 100%. The “LBF activity (% mortality)” value (blow fly larvae (LBF); 10 mg/kg IP, 30 min) was 0%, the “% Activity LBF” value (blow fly larvae (LBF); 10 mg/kg IP, bled 30 min) was 0% and the “% Activity LBF” value (blow fly larvae (LBF); 10 mg/kg IP, bled 5 hr) was 0%. The “% Activity LBF” value (blow fly larvae (LBF); 10 mg/kg IP, bled 24 hr) was 0%, the “LBF activity (% mortality)” value (blow fly larvae (LBF); 20 mg/kg IP, 30 min) was 0% and the “% Activity LBF” value (blow fly larvae (LBF); 20 mg/kg IP, bled 30 min) was 0%. For the same molecule, the “% Activity LBF” value (blow fly larvae (LBF); 20 mg/kg IP, bled 5 hr) was 0%, the “% Activity LBF” value (blow fly larvae (LBF); 20 mg/kg IP, bled 24 hr) was 0% and the “LBF activity (% mortality)” value (blow fly larvae (LBF); 30 mg/kg IP) was 90%. The “% Activity LBF” value (blow fly larvae (LBF); 30 mg/kg IP, bled 30 min) was 90%, the “% Activity LBF” value (blow fly larvae (LBF); 30 mg/kg IP, bled 5 hr) was 50% and the “% Activity LBF” value (blow fly larvae (LBF); 30 mg/kg IP, bled 24 hr) was 30%. The “LBF activity (% mortality)” value (blow fly larvae (LBF); 50 mg/kg IP, 30 min) was 100%, the “% Activity LBF” value (blow fly larvae (LBF); 50 mg/kg IP, bled 30 min) was 100% and the “% Activity LBF” value (blow fly larvae (LBF); 50 mg/kg IP, bled 5 hr) was 95%. The “% Activity LBF” value (blow fly larvae (LBF); 50 mg/kg IP, bled 24 hr) was 25%, the “LBF activity (% mortality)” value (blow fly larvae (LBF); 50 mg/kg OR (oral), 30 min) was 100% and the “% Activity LBF” value (blow fly larvae (LBF); 50 mg/kg oral, bled 5 hr) was 100%. For the same molecule, the “% Activity LBF” value (blow fly larvae (LBF); 50 mg/kg oral, bled 24 hr) was 0%, the mortality at 1 mg/kg (adult stable fly (ASF) [5]; 1.0 mg/kg IV) was 10% and the mortality at 10 mg/kg (adult stable fly (ASF) [5]; 10 mg/kg IP) was 0%. The mortality at 10 mg/kg (adult stable fly (ASF) [5]; 10 mg/kg IR) was 0%, the mortality at 30 mg/kg (adult stable fly (ASF) [5]; 30 mg/kg IP) was 0% and the mortality at 30 mg/kg (adult stable fly (ASF) [5]; 30 mg/kg IR) was 30%. For the same molecule, the mortality at 50 mg/kg (adult stable fly (ASF) [5]; 50 mg/kg IR) was 70%, the mortality at 25 mg/kg (adult stable fly (ASF) [5]; 2 × 25 mg/kg IR) was 90% and the Tox (sheep; 1.0 mg/kg IV) was “N”. For the same molecule, the Tox (sheep; 10 mg/kg IP) was “N”, the Tox (sheep; 10 mg/kg IR) was “N” and the Tox (sheep; 30 mg/kg IP) was “N”. For the same molecule, the Tox (sheep; 30 mg/kg IR) was “N”, the Tox (sheep; 50 mg/kg IP) was “N” and the Tox (sheep; 50 mg/kg IR) was “N”. For the same molecule, the Tox (sheep; 2 × 25 mg/kg IR) was “N”, the anthelmintic activity (Nematospiroides dubius) was “did not show anthelmintic activity” and the inhibition at 12.5 ppm (SAW (Southern armyworm); 12.5 ppm) was 0%. For the same molecule, the inhibition at 25 ppm (SAW (Southern armyworm); 25 ppm) was 40%, the inhibition at 50 ppm (SAW (Southern armyworm); 50 ppm) was 80% and the inhibition at 100 ppm (SAW (Southern armyworm); 100 ppm) was 100%.
